Measurements reported in ChEMBL document CHEMBL5096200, “A short survey of dengue protease inhibitor development in the past 6 years (2015-2020) with an emphasis on similarities between DENV and SARS-CoV-2 proteases” (Bioorg Med Chem, 2021).
Counter-ions that a name gives are not always drawn. Positions of bridges follow the written chain, without caps; N, C: chain ends. Non-standard residues stand in square brackets, D forms with d. Residues, ends and D or L forms follow the SMILES beside them. NBnAla = C[C@H](NCc1ccccc1)C(=O)O

Legend:
[1] = biological target: T1, Genome polyprotein (dengue virus type 2, UniProt P29990); assay: Inhibition of DENV2 NS2B-NS3 protease
T1 sequence (P29990 1346-1475 limits assumed): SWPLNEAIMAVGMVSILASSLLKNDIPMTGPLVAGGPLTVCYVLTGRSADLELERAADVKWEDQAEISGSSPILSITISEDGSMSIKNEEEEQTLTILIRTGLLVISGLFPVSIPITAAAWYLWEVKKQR
T1 sequence (P29990 1476-2093 limits assumed): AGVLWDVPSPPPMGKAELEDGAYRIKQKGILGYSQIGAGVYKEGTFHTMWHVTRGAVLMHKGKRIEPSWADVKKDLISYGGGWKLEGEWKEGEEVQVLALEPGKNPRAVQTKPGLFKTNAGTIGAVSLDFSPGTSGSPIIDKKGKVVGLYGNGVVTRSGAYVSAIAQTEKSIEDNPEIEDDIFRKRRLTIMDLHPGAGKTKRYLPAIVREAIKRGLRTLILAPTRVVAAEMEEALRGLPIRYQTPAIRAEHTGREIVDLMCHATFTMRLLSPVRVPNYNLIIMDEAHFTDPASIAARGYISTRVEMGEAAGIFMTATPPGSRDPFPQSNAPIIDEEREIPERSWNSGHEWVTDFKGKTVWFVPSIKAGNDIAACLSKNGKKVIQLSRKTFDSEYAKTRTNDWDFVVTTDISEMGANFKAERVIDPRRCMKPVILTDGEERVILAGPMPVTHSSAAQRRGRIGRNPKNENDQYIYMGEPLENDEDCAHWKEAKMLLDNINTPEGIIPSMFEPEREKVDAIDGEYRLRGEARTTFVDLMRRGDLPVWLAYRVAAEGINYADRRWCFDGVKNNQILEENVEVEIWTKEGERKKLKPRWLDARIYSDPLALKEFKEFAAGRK

[2] = biological target: T1, Genome polyprotein; assay: Binding affinity to DENV2 NS2B/NS3 protease assessed as inhibition constant
[3] = Permeability of the compound at pH 7.4; format: ADME; details: PAMPA, read-out: permeability
[4] = Inhibition of DENV2 pro; set-up: species or system dengue virus type 2
[5] = system: dengue virus type 2; assay: Antiviral activity against Dengue virus 2 infected in african green monkey Vero cells assessed as reduction in viral titer; format: functional, organism-based
[6] = Binding affinity to wildtype DENV3 protease assessed as inhibition constant using [Ac-[D-EDANS]KRRSWP[K-DABCYL]-AMIDE] as substrate by FRET-based enzymatic assay; set-up: species or system dengue virus type 3
[7] = biological target: T1, Genome polyprotein; assay: Inhibition of DENV2 NS2B-NS3 protease using Boc-Gly-Arg-Arg-7-amino-4-methylcoumarin as substrate incubated for 10 mins by fluorometric assay
[8] = system: dengue virus type 2; assay: Antiviral activity against DENV2; format: functional, organism-based
[9] = biological target: T1, Genome polyprotein; assay: Inhibition of DENV2 NS2B-NS3 protease using […] as substrate preincubated for 10 mins followed by substrate addition and incubated for 60 mins by fluorescence spectroscopy assay

Compound: CCN1/C(=C/C=C/c2oc3ccc4ccccc4c3[n+]2CC)Oc2ccc3ccccc3c21
- IC50 [1]: 27 µM

Compound: N#C/C(=C\c1ccc(O)cc1)C(N)=O
- Ki [2]: 35.7 µM
- Papp [3]: 8.4 ×10⁻⁶ cm/s
- Ki [1]: 35.7 µM

Compound: N=C(N)Nc1ccc(OC(=O)c2ccc(NC(=N)N)cc2)cc1
- Ki [2]: 2 µM
- Ki [1]: 2 µM

Compound: N=C(N)NCCC[C@H](NC(=O)c1nccs1)C(=O)N[C@@H](CCCCN)C(=O)N[C@@H](C(N)=O)c1ccc(OCc2ccc(C(F)(F)F)cc2)cc1
- IC50 [4]: 0.018 µM

Compound: N=C(N)N/N=C/c1ccc(/C=N/NC(=N)N)cc1
- Ki [2]: 44 µM
- Ki [1]: 44 µM

Compound: O=C(O)c1cc2sc(NC(=O)c3ccccc3Sc3ccc(C(F)(F)F)cc3)nc2cc1O
- EC50 [5]: 0.9 µM

Compound: O=C(Nc1nc2cc(O)c(O)cc2s1)c1ccccc1Sc1ccc(C(F)(F)F)cc1
- IC50 [4]: 3.6 µM
- EC50 [5]: > 3 µM

Compound: CC[C@H](C)[C@@H]1NC(=O)[C@H](CCCNC(=N)N)NC(=O)[C@H](C(C)C)NC(=O)[C@H](CCCNC(=N)N)NC(=O)[C@@H](NC(=O)[C@@H]2CCCN2)CSSC[C@@H](C(=O)N[C@H](C)C(=O)O)NC(=O)CNC(=O)CNC(=O)[C@H](CC(=O)O)NC1=O
- Ki [6]: 35.8 µM

Compound: O=C(Nc1nc2ccc([N+](=O)[O-])cc2s1)c1ccccc1Sc1ccc(C(F)(F)F)cc1
- EC50 [5]: 0.1 µM
- IC50 [7]: 22 µM

Compound: CC[C@H](C)[C@@H]1NC(=O)[C@H](CCCNC(=N)N)NC(=O)[C@H](C)NC(=O)[C@H](CCCNC(=N)N)NC(=O)[C@@H](NC(=O)[C@@H]2CCCN2)CSSC[C@@H](C(=O)N[C@H](C)C(=O)O)NC(=O)CNC(=O)CNC(=O)[C@H](CC(=O)O)NC1=O
- Ki [6]: 69.3 µM

Compound: N=C(N)NCCC[C@@H](NC1NC(=O)C(N[C@H](CCCCN)C(=O)O)NC(=O)C(N2CCC[C@@H]2C(=O)O)NC(=O)C(N[C@H](Cc2ccccc2)C(=O)O)NC(=O)C(N[C@H](CO)C(=O)O)NC(=O)C(N[C@@H](Cc2ccccc2)C(=O)O)NC(=O)C(N[C@@H](CO)C(=O)O)NC(=O)[C@H](CCCCN)NC1=O)C(=O)O (stereo partly drawn)
- IC50 [4]: 0.95 µM

Compound: Cc1c(O)cccc1C(=O)NC(CSc1ccccc1)C(O)CN1CC2CCCCC2C[C@H]1C(=O)NC(C)(C)C (stereo partly drawn)
- EC50 [8]: 3.5 µM

Compound: COc1cc2nc(NC(=O)c3ccccc3Sc3ccc(C(F)(F)F)cc3)sc2cc1OC
- EC50 [5]: 2.5 µM

Compound: CC[C@H](C)[C@@H]1NC(=O)[C@H](CCCNC(=N)N)NC(=O)[C@H](C(C)C)NC(=O)[C@H](CCCNC(=N)N)NC(=O)[C@@H](NC(=O)[C@@H]2CCCN2)CSSC[C@@H](C(=O)N[C@H](C)C(=O)O)NC(=O)CNC(=O)CNC(=O)[C@H](Cc2ccc(O)cc2)NC1=O
- Ki [6]: 25.6 µM

Compound: O=C(Nc1nc2ccc([N+](=O)[O-])cc2s1)c1ccccc1Sc1ccc([N+](=O)[O-])cc1
- IC50 [7]: 34 µM

Compound: CC[C@H](C)[C@@H]1NC(=O)[C@H](Cc2c[nH]c3ccccc23)NC(=O)[C@H](C)NC(=O)[C@H](CCCNC(=N)N)NC(=O)[C@@H](NC(=O)[C@@H]2CCCN2)CSSC[C@@H](C(=O)N[C@H](C)C(=O)O)NC(=O)CNC(=O)CNC(=O)[C@H](Cc2ccc(O)cc2)NC1=O
- Ki [6]: 145 µM

Compound: Oc1c(C(Nc2ccccc2)c2ccccn2)ccc2cccnc12 (stereo not drawn)
- Ki [2]: 17 µM
- Papp [3]: 4.12 ×10⁻⁶ cm/s
- Ki [1]: 17 µM

Compound: O=C(Nc1nc2ccc([N+](=O)[O-])cc2s1)c1cccc(Sc2ccc([N+](=O)[O-])cc2)c1
- EC50 [5]: 0.3 µM
- IC50 [7]: 26 µM

Compound: COc1ccc(C(=O)CN2C/C(=C/c3ccc([N+](=O)[O-])cc3)C(=O)/C(=C\c3ccc([N+](=O)[O-])cc3)C2)cc1
- IC50 [9]: 16.2 µM

Compound: O=C1/C(=C\c2ccc([N+](=O)[O-])cc2)CN(CC(=O)c2ccc(F)cc2)C/C1=C/c1ccc([N+](=O)[O-])cc1
- IC50 [9]: 15.2 µM

Compound: O=C1OC2(c3ccccc31)c1cc(I)c(O)c(I)c1OC1C(I)=C(O)C(I)=CC12 (stereo not drawn)
- EC50 [8]: 1.2 µM

Compound: O=[N+]([O-])c1ccc(N=Nc2ccc(O)c3ccccc23)c([N+](=O)[O-])c1
- Ki [2]: 15 µM
- Ki [1]: 15 µM

Compound: CC[C@H](C)[C@@H]1NC(=O)[C@H](Cc2c[nH]c3ccccc23)NC(=O)[C@H](C)NC(=O)[C@H](CCCNC(=N)N)NC(=O)[C@@H](NC(=O)[C@@H]2CCCN2)CSSC[C@@H](C(=O)N[C@H](CCCNC(=N)N)C(=O)O)NC(=O)CNC(=O)CNC(=O)[C@H](Cc2ccc(O)cc2)NC1=O
- Ki [6]: 19.7 µM

Compound: CC[C@H](C)[C@@H]1NC(=O)[C@H](CCCNC(=N)N)NC(=O)[C@H](C)NC(=O)[C@H](CCCNC(=N)N)NC(=O)[C@@H](NC(=O)c2ccccc2)CSSC[C@@H](C(=O)N[C@H](C)C(=O)O)NC(=O)CNC(=O)CNC(=O)[C@H](Cc2ccc(O)cc2)NC1=O
- Ki [6]: 33.2 µM

Compound: N=C(N)NCCC[C@@H]1NC(=O)[C@H](CCCCN)NC(=O)CNC(=O)[C@@H](N)CSSC[C@@H](C(=O)O)NC(=O)[C@H](CO)NC(=O)[C@H](CCCCN)NC1=O (H-CGKRKSC-OH; disulfide 1-7)
- Ki [2]: 1.4 µM
- Ki [1]: 1.4 µM

Compound: CC[C@H](C)[C@@H]1NC(=O)[C@H](CCCNC(=N)N)NC(=O)[C@H](C)NC(=O)[C@H](CCCNC(=N)N)NC(=O)[C@@H](N)CSSC[C@@H](C(=O)N[C@@H](C)C(=O)O)NC(=O)CNC(=O)CNC(=O)[C@H](Cc2ccc(O)cc2)NC(=O)CNC1=O (H-CRARIGYGGCA-OH; disulfide 1-10)
- Ki [6]: 145 µM

Compound: CC[C@H](C)[C@@H]1NC(=O)[C@H](CCCNC(=N)N)NC(=O)[C@H](C)NC(=O)[C@H](CCCCN)NC(=O)[C@@H](NC(=O)[C@@H]2CCCN2)CSSC[C@@H](C(=O)N[C@@H](C)C(=O)O)NC(=O)CNC(=O)CNC(=O)[C@H](Cc2ccc(O)cc2)NC(=O)CNC1=O (H-PCKARIGYGGCA-OH; disulfide 2-11)
- Ki [6]: 377 µM

Compound: CC[C@H](C)[C@@H]1NC(=O)[C@H](CCCNC(=N)N)NC(=O)[C@H](C)NC(=O)[C@H](CCCCN)NC(=O)[C@@H](NC(=O)[C@@H]2CCCN2)CSSC[C@@H](C(=O)N[C@@H](C)C(=O)O)NC(=O)CNC(=O)CNC(=O)[C@H](Cc2ccc(O)cc2)NC(=O)CNC(=O)CNC(=O)[C@H]([C@@H](C)CC)NC1=O (H-PCKARIIGGYGGCA-OH; disulfide 2-13)
- Ki [6]: 678 µM

Compound: CC[C@H](C)[C@@H]1NC(=O)[C@H](CCCNC(=N)N)NC(=O)[C@H](C)NC(=O)[C@H](CCCCN)NC(=O)[C@@H](NC(=O)[C@@H]2CCCN2)CSSC[C@@H](C(=O)N[C@@H](CCCNC(=N)N)C(=O)O)NC(=O)CNC(=O)CNC(=O)[C@H](Cc2ccc(O)cc2)NC(=O)CNC(=O)CNC(=O)[C@H]([C@@H](C)CC)NC1=O (H-PCKARIIGGYGGCR-OH; disulfide 2-13)
- Ki [6]: 232 µM

Compound: CC[C@H](C)[C@@H]1NC(=O)[C@H](CCCNC(=N)N)NC(=O)[C@H](C)NC(=O)[C@H](CCCCN)NC(=O)[C@@H](NC(=O)[C@@H]2CCCN2)CSSC[C@@H](C(=O)N[C@@H](C)C(=O)O)NC(=O)CNC(=O)CNC(=O)[C@H](Cc2ccc(O)cc2)NC1=O (H-PCKARIYGGCA-OH; disulfide 2-10)
- Ki [6]: 14.5 µM

Compound: CC[C@H](C)[C@@H]1NC(=O)[C@H](CCCNC(=N)N)NC(=O)[C@H](C)NC(=O)[C@H](CCCNC(=N)N)NC(=O)[C@@H](NC(=O)[C@@H]2CCCN2)CSSC[C@@H](C(=O)N[C@@H](C)C(=O)O)NC(=O)CNC1=O (H-PCRARIGCA-OH; disulfide 2-8)
- Ki [6]: 101 µM

Compound: CC[C@H](C)[C@@H]1NC(=O)[C@H](CCCNC(=N)N)NC(=O)[C@H](C)NC(=O)[C@H](CCCNC(=N)N)NC(=O)[C@@H](NC(=O)[C@@H]2CCCN2)CSSC[C@@H](C(=O)N[C@@H](C)C(=O)O)NC(=O)CNC(=O)CNC1=O (H-PCRARIGGCA-OH; disulfide 2-9)
- Ki [6]: 780 µM

Compound: CC[C@H](C)[C@@H]1NC(=O)[C@H](CCCNC(=N)N)NC(=O)[C@H](C)NC(=O)[C@H](CCCNC(=N)N)NC(=O)[C@@H](NC(=O)[C@@H]2CCCN2)CSSC[C@@H](C(=O)N[C@@H](CCCNC(=N)N)C(=O)O)NC(=O)CNC(=O)CNC1=O (H-PCRARIGGCR-OH; disulfide 2-9)
- Ki [6]: 29.7 µM

Compound: CC[C@H](C)[C@@H]1NC(=O)[C@H](CCCNC(=N)N)NC(=O)[C@H](C)NC(=O)[C@H](CCCNC(=N)N)NC(=O)[C@@H](NC(=O)[C@@H]2CCCN2)CSSC[C@@H](C(=O)N[C@@H](C)C(=O)O)NC(=O)CNC(=O)[C@H](Cc2ccc(O)cc2)NC1=O (H-PCRARIYGCA-OH; disulfide 2-9)
- Ki [6]: 468 µM

Compound: CC[C@H](C)[C@@H]1NC(=O)[C@H](CCCNC(=N)N)NC(=O)[C@H](C)NC(=O)[C@H](CCCNC(=N)N)NC(=O)[C@@H](NC(=O)[C@@H]2CCCN2)CSSC[C@@H](C(=O)N[C@@H](C)C(=O)O)NC(=O)CNC(=O)CNC(=O)[C@H](Cc2ccc(O)cc2)NC1=O (H-PCRARIYGGCA-OH; disulfide 2-10)
- Ki [6]: 966 µM

Compound: C[C@H](NCc1ccccc1)C(=O)N[C@@H](CCCCN)C(=O)N[C@@H](CCCNC(=N)N)C(=O)N[C@@H](CCCNC(=N)N)C(=O)O (H-[NBnAla]KRR-OH)
- Ki [2]: 5.3 µM
- Ki [1]: 5.3 µM

Compound: CCCCC(CC)CN=C(N)N=C(N)NCCCCCCNC(N)=NC(N)=NCC(CC)CCCC (stereo not drawn) [ALEXIDINE HYDROCHLORIDE]
- Ki [1]: 41 µM

Compound: COc1cc(O)c(C(=O)[C@@H]2[C@H](CC=C(C)C)C(C)=CC[C@H]2c2ccccc2)c(O)c1 [PANDURATIN A]
- IC50 [9]: 57.3 µM

Compound: CO[C@H]1C[C@H](O[C@@H]2/C(C)=C/C[C@@H]3C[C@@H](C[C@]4(CC[C@H](C)[C@@H](C5CCCCC5)O4)O3)OC(=O)[C@@H]3C=C(C)/C(=N/O)[C@H]4OC/C(=C\C=C\[C@@H]2C)[C@]43O)O[C@@H](C)[C@@H]1O [SELAMECTIN]
- Ki [2]: 63 µM

Compound: IVERMECTIN
- Ki [2]: 79 µM
- Ki [1]: 79 µM
